According to patent publication US20110152313A1 (MACQUARIE UNIVERSITY, priority 2008, published 2011):
In brackets after ≈: the same amount, converted by molar mass. Each block holds one compound with its values, some of them ahead of it.

Legend:
[1] = system: new blood vessel growth from isolated rat aorta fragments; assay: rat aorta fragment vessel outgrowth (anti-angiogenic) assay in fibrin gel; assay type: cell-based; conditions: 120 h, read-out: Anti-Angiogenesis Activity IC50 (concentration that inhibits 50% of the new blood vessel growth); rat aorta fragments, day 5; >100 = no inhibition under the assay conditions
Experimental: A potentially non-toxic method of treating cancer is to inhibit angiogenesis. The human anti-angiogenic and therefore antiproliferative action of drugs can be assessed by many methods well known in the prior art. […] Briefly, thoracic aortas were excized from 3-9 month-old female Fischer rats, cross-sectioned at 1 mm intervals and embedded individually in 0.5 ml of a fibrin gel containing 5 μg/ml of aprotinin (to prevent fibrinolysis) in each well of a 48-well culture plate. Immediately after vessel embedding, 0.5 ml/well of medium M199, supplemented with 20% foetal calf serum, 0.1% E-aminocaproic acid, 1% L-glutamine and antibiotics, was added. Each test compound (10 mg/ml, dissolved in DMSO) was added to the medium (maximum final concentration of test compound 100 μg/ml) and each treatment was performed in six wells. Control cultures received medium containing 0.1% DMSO but without any test compound. […] Vessels were cultured at 37° C. in 5% CO2 in air for 5 days and the medium, with or without test compound, was changed on day 4. Vessel growth was quantified manually under 40× magnification on day 5, with growth being estimated as the percentage of the field (×40) around the vessel fragment that was occupied by vessel outgrowths. By counting the number of vessels formed after 5 days at three to six different concentrations (in triplicate) it is possible to determine an IC50 values for each compound compared to a positive and negative (solvent) control. The percentage inhibition (0-100%) is plotted against compound concentration and a 3-parameter sigmoidal (dose-response) curve fitted (Graphpad Prism v 4) by non-linear regression.

[2] = target: T1, CDK5/p25 (Homo sapiens, UniProt Q00535); assay: protein kinase activity assay ([γ-32P] ATP, histone H1); assay type: biochemical; conditions: 15 μM ATP, 30° C.; tested up to 100 μM; read-out: IC50 CDK5/p25
T1 construct: made in house
T1 sequence (Q00535 whole entry): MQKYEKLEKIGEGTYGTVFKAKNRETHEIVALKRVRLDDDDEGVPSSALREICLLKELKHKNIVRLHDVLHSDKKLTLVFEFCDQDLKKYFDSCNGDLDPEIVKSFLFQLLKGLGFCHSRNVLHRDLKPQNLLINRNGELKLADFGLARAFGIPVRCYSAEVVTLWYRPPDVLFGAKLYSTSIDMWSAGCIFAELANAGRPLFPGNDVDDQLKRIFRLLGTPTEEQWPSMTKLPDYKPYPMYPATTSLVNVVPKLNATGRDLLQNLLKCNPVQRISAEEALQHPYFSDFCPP
T1 sequence (Q15078 99-307 partner limits assumed): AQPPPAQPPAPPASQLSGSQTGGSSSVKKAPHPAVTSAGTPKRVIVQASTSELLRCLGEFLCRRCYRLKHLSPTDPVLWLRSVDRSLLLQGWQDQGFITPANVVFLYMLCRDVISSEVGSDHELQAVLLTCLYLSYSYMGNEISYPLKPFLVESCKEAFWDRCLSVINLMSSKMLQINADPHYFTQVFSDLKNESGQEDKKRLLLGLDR
Experimental: Buffer A: 10 mM MgCl2, 1 mM EGTA, 1 mM DTT, 25 mM Tris-HCl pH 7.5, 50 μg heparin/mL. Buffer C: 60 mM β-glycerophosphate, 15 mM p-nitrophenylphosphate, 25 mM Mops (pH 7.2), 5 mM EGTA, 15 mM MgCl2, 1 mM DTT, 1 mM sodium vanadate, 1 mM phenyl phosphate.
Anticancer activity is commonly associated with the inhibition of kinase enzymes. […] Blank values are subtracted and activities expressed as percent of the maximal activity, i.e. in the absence of inhibitors (Table 4). Controls were performed with appropriate dilutions of DMSO, which was used to dissolve all test compounds.
CDK1/cyclin B (native M phase starfish oocytes), and CDK5/p25 (recombinant human) can be prepared according to the prior art (Meijer, L.; Thunnissen, A. M. W. H.; White, A. W.; Gamier, M.; Nikolic, M., et al. Chem. Biol. 2000, 7, 51-63). […] ATP (3,000 Ci/mmol, 10 mCi/mL) in a final volume of 30 μL. After 30 min. incubation at 30° C., 25 μL aliquots of supernatant are spotted onto 2.5×3 cm pieces of Whatman P81 phosphocellulose paper and, 20 s later, the filters are washed five times (for at least 5 min. each time) in a solution of 10 mL phosphoric acid/L of water. The wet filters are then counted in the presence of 1 mL ACS (Amersham) scintillation fluid.

[3] = target: T2, PRKCE (Homo sapiens, UniProt Q02156); assay: kinase binding constant, 11-point dose response (T7 phage, qPCR); conditions: >30 = no inhibition at highest concentration tested
T2 sequence (Q02156 1-737): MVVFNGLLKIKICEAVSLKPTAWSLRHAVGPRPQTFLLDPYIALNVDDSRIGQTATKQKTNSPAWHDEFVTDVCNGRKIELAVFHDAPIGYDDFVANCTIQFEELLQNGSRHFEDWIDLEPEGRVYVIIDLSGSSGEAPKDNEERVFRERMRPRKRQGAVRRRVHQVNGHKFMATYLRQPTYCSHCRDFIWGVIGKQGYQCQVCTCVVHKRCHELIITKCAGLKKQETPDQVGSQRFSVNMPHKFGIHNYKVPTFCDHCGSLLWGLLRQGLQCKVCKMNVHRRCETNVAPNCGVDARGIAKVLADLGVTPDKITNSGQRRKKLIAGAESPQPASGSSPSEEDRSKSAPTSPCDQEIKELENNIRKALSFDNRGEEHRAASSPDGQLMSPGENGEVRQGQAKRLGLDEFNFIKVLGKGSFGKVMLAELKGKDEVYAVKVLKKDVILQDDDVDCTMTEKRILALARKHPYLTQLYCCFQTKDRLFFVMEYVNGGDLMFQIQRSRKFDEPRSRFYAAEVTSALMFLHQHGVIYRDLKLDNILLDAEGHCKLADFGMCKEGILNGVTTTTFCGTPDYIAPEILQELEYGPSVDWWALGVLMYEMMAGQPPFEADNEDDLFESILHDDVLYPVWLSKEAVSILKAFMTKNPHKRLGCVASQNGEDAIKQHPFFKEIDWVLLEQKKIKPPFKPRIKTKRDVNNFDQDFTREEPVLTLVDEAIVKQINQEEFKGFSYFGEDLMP
Experimental: (§1) Kinase inhibition studies were performed by methods well known in the prior art (Fabian, M. A. et al. Nat. Biotechnol. 2005, 23, 329). Briefly, kinase-tagged T7 phage strains were prepared in an E. coli host derived from the BL21 strain. E. coli were grown to log-phase and infected with T7 phage and incubated with shaking at 32° C. until lysis. The lysates were centrifuged and filtered to remove cell debris. […] The liganded beads were blocked with excess biotin and washed with blocking buffer (SeaBlock (Pierce); 1% BSA, 0.05% Tween 20, 1 mM DTT) to remove unbound ligand and to reduce non-specific binding. […] All reactions were performed in polystyrene 96-well plates in a final volume of 0.135 ml. […] The kinase concentration in the eluates was measured by qPCR.
(§2) An 11-point 3-fold serial dilution of each test compound (from 30 μM to 0.5 nM) was prepared in 100% DMSO at 100× final test concentration and subsequently diluted to 1× in the assay (final DMSO concentration=1%). Binding constants (KDS) were calculated with a standard dose-response curve using a 5-point sigmoidal (Hill) equation.

[4] = target: CAMKK1 (Homo sapiens, UniProt Q8N5S9); assay: as above; conditions: >30 = no inhibition at highest concentration tested
Sequence of CAMKK1 (Q8N5S9 whole entry): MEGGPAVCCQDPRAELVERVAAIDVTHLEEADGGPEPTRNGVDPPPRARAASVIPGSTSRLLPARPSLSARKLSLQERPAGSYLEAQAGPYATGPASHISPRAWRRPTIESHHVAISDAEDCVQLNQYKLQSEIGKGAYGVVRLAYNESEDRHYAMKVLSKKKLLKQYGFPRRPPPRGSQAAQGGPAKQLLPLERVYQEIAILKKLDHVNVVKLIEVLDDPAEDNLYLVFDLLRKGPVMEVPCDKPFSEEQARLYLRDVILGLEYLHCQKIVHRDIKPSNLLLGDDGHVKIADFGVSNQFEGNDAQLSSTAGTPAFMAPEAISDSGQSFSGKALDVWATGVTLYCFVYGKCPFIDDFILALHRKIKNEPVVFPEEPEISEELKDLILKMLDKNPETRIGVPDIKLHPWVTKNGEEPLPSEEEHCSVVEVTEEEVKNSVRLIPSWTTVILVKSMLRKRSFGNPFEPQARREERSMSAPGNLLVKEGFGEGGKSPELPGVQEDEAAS
Experimental: as §1, §2

[5] = target: CAMK2G (Homo sapiens, UniProt Q13555); assay: as above; conditions: >30 = no inhibition at highest concentration tested
Sequence of CAMK2G (Q13555 whole entry): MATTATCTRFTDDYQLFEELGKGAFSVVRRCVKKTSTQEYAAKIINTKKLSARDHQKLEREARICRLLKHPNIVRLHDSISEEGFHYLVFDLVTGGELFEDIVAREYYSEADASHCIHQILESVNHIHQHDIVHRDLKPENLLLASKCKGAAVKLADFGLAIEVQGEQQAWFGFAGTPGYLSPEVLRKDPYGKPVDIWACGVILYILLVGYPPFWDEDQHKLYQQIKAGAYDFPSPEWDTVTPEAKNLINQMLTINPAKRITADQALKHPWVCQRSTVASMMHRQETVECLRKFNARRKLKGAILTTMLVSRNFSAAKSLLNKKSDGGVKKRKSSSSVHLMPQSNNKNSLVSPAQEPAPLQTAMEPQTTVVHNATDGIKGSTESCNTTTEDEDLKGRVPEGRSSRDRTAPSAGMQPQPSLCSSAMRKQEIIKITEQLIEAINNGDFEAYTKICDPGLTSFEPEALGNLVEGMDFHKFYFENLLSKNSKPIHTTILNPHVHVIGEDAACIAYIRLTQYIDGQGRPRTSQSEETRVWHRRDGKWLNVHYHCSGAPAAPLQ
Experimental: as §1, §2

[6] = target: AAK1 (Homo sapiens, UniProt Q2M2I8); assay: as above; conditions: >30 = no inhibition at highest concentration tested
Sequence of AAK1 (Q2M2I8 whole entry): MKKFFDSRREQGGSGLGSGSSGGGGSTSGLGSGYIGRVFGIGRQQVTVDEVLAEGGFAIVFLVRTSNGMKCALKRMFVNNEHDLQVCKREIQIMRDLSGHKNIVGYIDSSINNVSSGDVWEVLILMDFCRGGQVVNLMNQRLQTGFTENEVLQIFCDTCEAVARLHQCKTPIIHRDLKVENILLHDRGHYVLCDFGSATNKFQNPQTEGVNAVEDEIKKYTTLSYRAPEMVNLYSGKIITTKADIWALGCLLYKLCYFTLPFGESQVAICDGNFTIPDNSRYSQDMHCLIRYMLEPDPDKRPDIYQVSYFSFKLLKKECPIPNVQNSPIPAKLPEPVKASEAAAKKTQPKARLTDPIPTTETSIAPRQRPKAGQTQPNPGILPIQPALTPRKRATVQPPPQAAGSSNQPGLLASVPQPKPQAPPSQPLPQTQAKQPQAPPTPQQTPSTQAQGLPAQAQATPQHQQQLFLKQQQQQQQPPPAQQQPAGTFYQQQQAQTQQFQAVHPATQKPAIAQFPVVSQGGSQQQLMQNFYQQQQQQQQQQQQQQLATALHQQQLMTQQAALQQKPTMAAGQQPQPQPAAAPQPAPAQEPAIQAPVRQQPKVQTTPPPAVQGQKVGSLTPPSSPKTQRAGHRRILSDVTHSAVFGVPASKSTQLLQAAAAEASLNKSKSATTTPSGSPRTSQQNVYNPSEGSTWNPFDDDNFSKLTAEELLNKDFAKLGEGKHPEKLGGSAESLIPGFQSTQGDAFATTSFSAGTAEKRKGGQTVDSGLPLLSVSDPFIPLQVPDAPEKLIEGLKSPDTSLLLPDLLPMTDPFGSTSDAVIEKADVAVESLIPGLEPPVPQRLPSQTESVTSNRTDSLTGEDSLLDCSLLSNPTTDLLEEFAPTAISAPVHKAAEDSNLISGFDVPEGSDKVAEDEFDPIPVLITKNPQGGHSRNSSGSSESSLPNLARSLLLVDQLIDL
Experimental: as §1, §2

[7] = target: CLK2 (Homo sapiens, UniProt P49760); assay: as above; conditions: >30 = no inhibition at highest concentration tested
Sequence of CLK2 (P49760 whole entry): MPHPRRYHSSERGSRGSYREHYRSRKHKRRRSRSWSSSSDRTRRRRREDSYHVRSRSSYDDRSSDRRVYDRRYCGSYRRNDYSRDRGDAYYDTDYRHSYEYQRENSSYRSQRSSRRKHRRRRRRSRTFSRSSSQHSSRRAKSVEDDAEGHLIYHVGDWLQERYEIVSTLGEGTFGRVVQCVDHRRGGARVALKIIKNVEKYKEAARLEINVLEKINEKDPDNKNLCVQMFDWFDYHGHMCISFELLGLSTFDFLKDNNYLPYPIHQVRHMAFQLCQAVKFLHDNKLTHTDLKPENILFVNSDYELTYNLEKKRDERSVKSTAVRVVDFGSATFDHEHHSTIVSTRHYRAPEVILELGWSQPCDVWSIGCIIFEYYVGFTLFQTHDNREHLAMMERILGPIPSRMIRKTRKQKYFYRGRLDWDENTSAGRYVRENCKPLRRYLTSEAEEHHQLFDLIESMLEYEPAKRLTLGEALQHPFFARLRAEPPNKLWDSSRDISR
Experimental: as §1, §2

[8] = target: BMPR1B (Homo sapiens, UniProt O00238); assay: as above; conditions: >30 = no inhibition at highest concentration tested
Sequence of BMPR1B (O00238 14-502): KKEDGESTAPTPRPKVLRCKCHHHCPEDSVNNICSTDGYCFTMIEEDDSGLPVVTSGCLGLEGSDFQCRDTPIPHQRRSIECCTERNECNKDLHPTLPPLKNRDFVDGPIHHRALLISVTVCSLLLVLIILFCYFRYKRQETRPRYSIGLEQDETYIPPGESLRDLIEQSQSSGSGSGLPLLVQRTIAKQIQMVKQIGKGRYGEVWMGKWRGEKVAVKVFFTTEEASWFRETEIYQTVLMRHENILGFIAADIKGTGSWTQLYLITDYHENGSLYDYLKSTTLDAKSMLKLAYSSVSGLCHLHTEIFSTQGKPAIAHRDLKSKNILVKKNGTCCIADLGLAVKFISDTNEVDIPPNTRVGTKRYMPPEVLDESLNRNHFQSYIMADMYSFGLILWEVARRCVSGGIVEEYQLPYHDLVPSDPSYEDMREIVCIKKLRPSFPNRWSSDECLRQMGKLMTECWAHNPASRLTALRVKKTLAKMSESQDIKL
Experimental: as §1, §2

IC50 [2]: > 100 µM
Structure (SMILES): Nc1nc2c(-c3cc(Br)c(Br)[nH]3)nccc2[nH]1 [Ageladine A, ageladine A, reference compound]
IC50 [1]: 25 µg/mL (≈ 70 µM)

Structure (SMILES): Nc1nc2c(-c3ccccn3)nccc2[nH]1 [drawing 35, 4-(pyrid-2-yl)-1H-imidazo[4,5-c]pyridin-2-amine]
Kd [3]: > 30 µM
Kd [4]: > 30 µM
Kd [5]: > 30 µM
Kd [6]: 1.5 µM

Structure (SMILES): Nc1nc2c(-c3cnc4ccccc4c3)nccc2[nH]1 [drawing 36, 4-(quinolin-3-yl)-1H-imidazo[4,5-c]pyridin-2-amine]
Kd [7]: 1.2 µM
Kd [8]: 7.2 µM
